Source: US11478460B2, “Diaryl substituted 6,5-fused ring compounds as C5aR inhibitors” (CHEMOCENTRYX, INC., priority 2017, dated 2022)

Target: C5aR (Homo sapiens (Human), UniProt P21730)
Assay: Chemotaxis assay using U937 cells (C5aR mediated migration)
Assay type: cell-based
Settings: read-out: Mig IC50
Method: U937 cells are a monocytic cell line which express C5aR, and are available from ATCC (VA). These cells were cultured as a suspension in RPMI-1640 medium supplemented with 2 mM L-glutamine, 1.5 g/L sodium bicarbonate, 4.5 g/L glucose, 10 mM HEPES, 1 mM sodium pyruvate, and 10% FBS. Cells were grown under 5% CO2/95% air, 100% humidity at 37° C. and subcultured twice weekly at 1:6 (cells were cultured at a density range of 1×10^5 to 2×10^6 cells/mL) and harvested at 1×10^6 cells/mL. Prior to assay, cells are treated overnight with 0.5 mM of cyclic AMP (Sigma, OH) and washed once prior to use. cAMP treated U937 cells can be used in C5aR ligand binding and functional assays.
Optionally, compounds may be further assayed for their ability to inhibit chemotaxis in cells. Chemotaxis assays are performed using 5 μm pore polycarbonate, polyvinylpyrrolidone-coated filters in 96-well chemotaxis chambers (Neuroprobe; Gaithersburg, Md.) using chemotaxis buffer (Hank's balanced salt solution (HBSS) and 1% FBS). C5aR ligands (i.e., C5a, R&D Systems; Minneapolis, Minn.) are use to evaluate compound mediated inhibition of C5aR mediated migration. Other chemokines (i.e., SDF-1α; R&D Systems; Minneapolis, Minn.) are used as specificity controls. The lower chamber is loaded with 29 μl of chemokine (i.e., 0.03 nM C5a) and varying amounts of compound; the top chamber contains 100,000 U937 or neutrophil cells in 20 μl. The chambers are incubated 1.5 hours at 37° C., and the number of cells in the lower chamber quantified either by direct cell counts in five high powered fields per well or by the CyQuant assay (Molecular Probes), a fluorescent dye method that measures nucleic acid content and microscopic observation.
The compounds in Table 1, below, were prepared using the methods described above. Characterization data is provided for each compound listed. Activity is provided as follows for the chemotaxis assay using U937 cells as described herein (Example 12): +, 500 nM<IC50; ++, 50 nM<IC50≤500 nM; +++, 5 nM<IC50≤50 nM; and ++++, IC50≤5 nM.

Sequence of C5aR (P21730 whole entry): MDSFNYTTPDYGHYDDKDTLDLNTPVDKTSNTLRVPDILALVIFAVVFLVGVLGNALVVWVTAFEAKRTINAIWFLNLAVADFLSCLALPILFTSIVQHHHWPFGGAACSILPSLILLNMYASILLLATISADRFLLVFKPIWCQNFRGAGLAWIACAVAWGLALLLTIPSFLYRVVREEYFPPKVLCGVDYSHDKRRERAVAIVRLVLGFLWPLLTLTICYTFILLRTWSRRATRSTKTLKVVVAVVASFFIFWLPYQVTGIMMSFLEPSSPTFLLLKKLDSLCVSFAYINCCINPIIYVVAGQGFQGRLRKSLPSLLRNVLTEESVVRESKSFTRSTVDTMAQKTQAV

Row | Structure (SMILES) | IC50 [nM]
1 | Cc1cccc(C)c1-n1nc2c(c1-c1cc(F)c(NC(N)=O)cc1F)CN(c1ccc(F)cc1Cl)CC2 [Example 1.106] | ≤ 5
2 | Cc1cccc(C)c1-n1nc2c(c1-c1cc(F)c(NC(N)=O)cc1F)CN(c1ccc(Cl)cc1F)CC2 [Example 1.107] | ≤ 5
3 | Cc1cc(C(N)=O)ccc1-c1c2c(nn1-c1c(C)cccc1C)CCN(c1ncc(Cl)cc1Cl)C2 [Example 1.108] | > 500
4 | Cc1cccc(C)c1-n1nc2c(c1-c1ccc(C(N)=O)cc1)CN(c1ncc(Cl)cc1Cl)CC2 [Example 1.109] | 50 to 500
5 | Cc1cccc(C)c1-n1nc2c(c1-c1ccc(C(N)=O)c(F)c1)CN(c1ncc(Cl)cc1Cl)CC2 [Example 1.110] | > 500
6 | COc1cc(NC(N)=O)c(F)cc1-c1c2c(nn1-c1c(C)cccc1C)CCN(c1ccc(C(F)(F)F)cc1F)C2 [Example 1.111] | ≤ 5
7 | Cc1cccc(C)c1-n1nc2c(c1-c1cc(F)c(O)cc1F)CN(c1ncc(Cl)cc1Cl)CC2 [Example 1.112] | ≤ 5
8 | Cc1cccc(C)c1-n1nc2c(c1-c1cc(F)c(NC(N)=O)cc1F)CN(c1ncc(C(C)C)cc1Cl)CC2 [Example 1.113] | ≤ 5
9 | COc1cc(NC(N)=O)c(F)cc1-c1c2c(nn1-c1c(C)cccc1C)CCN(c1ccc(Cl)cc1Cl)C2 [Example 1.114] | ≤ 5
10 | Cc1cnc(N2CCc3nn(-c4c(C)cccc4C)c(-c4cc(F)c(NC(N)=O)cc4F)c3C2)c(Cl)c1 [Example 1.115] | ≤ 5
11 | Cc1cccc(C)c1-n1nc2c(c1-c1cc(F)c(NC(=O)CN)cc1F)CN(c1ncc(Cl)cc1Cl)CC2 [Example 1.116] | > 500
12 | Cc1cc(NC(N)=O)c(F)cc1-c1c2c(nn1-c1c(C)cccc1C)CCN(c1ccc(C(F)(F)F)cc1F)C2 [Example 1.117] | ≤ 5
13 | Cc1cc(NC(N)=O)c(F)cc1-c1c2c(nn1-c1c(C)cccc1C)CCN(c1ccc(Cl)cc1Cl)C2 [Example 1.118] | ≤ 5
14 | Cc1cccc(C)c1-n1nc2c(c1-c1cc(F)c(NC(N)=O)cc1F)CN(c1ccc(Cl)cc1Cl)CC2 [Example 1.119] | ≤ 5
15 | Cc1cccc(C)c1-n1nc2c(c1-c1cc(F)c(N)cc1F)CN(c1ncc(Cl)cc1Cl)CC2 [Example 1.120] | > 500
16 | COc1cc(F)c(-c2c3c(nn2-c2c(C)cccc2C)CCN(c2ncc(Cl)cc2Cl)C3)cc1F [Example 1.121] | > 500
17 | Cc1cccc(C)c1-n1nc2c(c1-c1cc(F)c(NC(N)=O)cc1F)CN(c1ccc(C(F)(F)F)cc1F)CC2 [Example 1.122] | ≤ 5
18 | COc1cc(NC(N)=O)c(F)cc1-c1c2c(nn1-c1c(C)cccc1C)CCN(c1ncc(Cl)cc1Cl)C2 [Example 1.123] | ≤ 5
19 | Cc1cccc(C)c1-n1nc2c(c1-c1cc(F)c(NC(N)=O)cc1F)CN(c1ncc(C3CC3)cc1Cl)CC2 [Example 1.124] | ≤ 5
20 | Cc1cccc(C)c1-n1nc2c(c1-c1cc(F)c(NC(=O)CO)cc1F)CN(c1ncc(Cl)cc1Cl)CC2 [Example 1.125] | 50 to 500

Row | Structure (SMILES) | IC50 [nM]
21 | CC(=O)Nc1cc(F)c(-c2c3c(nn2-c2c(C)cccc2C)CCN(c2ncc(Cl)cc2Cl)C3)cc1F [Example 1.126] | 50 to 500
22 | Cc1cccc(C)c1-n1nc2c(c1-c1cc(F)c(NC(N)=O)cc1F)CN(c1ncccc1Cl)CC2 [Example 1.127] | ≤ 5
23 | Cc1cc(NC(N)=O)c(F)cc1-c1c2c(nn1-c1c(C)cccc1C)CCN(c1ncc(Cl)cc1Cl)C2 [Example 1.128] | ≤ 5
24 | Cc1cc(NC(N)=O)c(F)cc1-c1c2c(nn1-c1c(C)cccc1OCC(C)C)CCN(c1ncc(C(C)C)cc1F)C2 [Example 1.129] | ≤ 5
25 | COc1cc(NC(N)=O)c(F)cc1-c1c2c(nn1-c1c(C)cccc1OCC(C)C)CCN(c1ncc(C(C)C)cc1F)C2 [Example 1.130] | ≤ 5
26 | COCC(c1ccccc1)N1CCc2nn(-c3c(C)cccc3OCC(C)C)c(-c3cc(F)c(NC(N)=O)cc3F)c2C1 (stereo not shown) [Example 1.131] | ≤ 5
27 | Cc1cccc(C)c1-n1nc2c(c1-c1cc(F)c(NC(N)=O)cc1F)CN(c1ncc(Cl)cc1F)CC2 [Example 1.132] | ≤ 5
28 | Cc1ccnc(C)c1-n1nc2c(c1-c1cc(F)c(NC(N)=O)cc1F)CN(C(C)(C)c1ccccc1)CC2 [Example 1.133] | 50 to 500
29 | Cc1cccc(OCC(C)C)c1-n1nc2c(c1-c1ccc(NC(N)=O)cc1)CN(C(C)(C)c1ccccc1)CC2 [Example 1.134] | 5 to 50
30 | CCc1cccc(CC)c1-n1nc2c(c1-c1cc(F)c(NC(N)=O)cc1F)CN(C(C(N)=O)c1ccccc1)CC2 (stereo not shown) [Example 1.135] | > 500
31 | CC(C)(c1ccccc1)N1CCc2nn(-c3ccccc3OCC(F)(F)F)c(-c3cc(F)c(NC(N)=O)cc3F)c2C1 [Example 1.136] | ≤ 5
32 | Cc1cccc(OCC(C)C)c1-n1nc2c(c1-c1cc(F)c(NC(N)=O)cc1F)CN(c1ccnc(C(F)(F)F)n1)CC2 [Example 1.137] | ≤ 5
33 | CC(C)(c1ccccc1)N1CCc2nn(-c3ccccc3OC(F)(F)F)c(-c3cc(F)c(NC(N)=O)cc3F)c2C1 [Example 1.138] | ≤ 5
34 | Cc1cccc(OCC(C)C)c1-n1nc2c(c1-c1cc(F)c(NC(N)=O)cc1F)CN(c1ccnc(C(C)C)n1)CC2 [Example 1.139] | ≤ 5
35 | Cc1cccc(OCC(C)C)c1-n1nc2c(c1-c1cc(F)c(NC(N)=O)cc1F)CN(c1ncnc3cc[nH]c13)CC2 [Example 1.140] | > 500
36 | Cc1cccc(OCC(C)C)c1-n1nc2c(c1-c1cc(F)c(NC(N)=O)cc1F)CN(c1ncncc1Cl)CC2 [Example 1.141] | ≤ 5
37 | Cc1cccc(OCC(C)C)c1-n1nc2c(c1-c1cc(F)c(NC(N)=O)cc1F)CN(c1nccn3ccnc13)CC2 [Example 1.142] | 5 to 50
38 | NC(=O)Nc1cc(F)c(-c2c3c(nn2-c2ccccc2OCC(F)(F)F)CCN(c2ncc(Cl)cc2Cl)C3)cc1F [Example 1.143] | ≤ 5
39 | CCc1cccc(CC)c1-n1nc2c(c1-c1cc(F)c(NC(N)=O)cc1F)CN(C(CC)c1ccccc1C(F)(F)F)CC2 (stereo not shown) [Example 1.144] | ≤ 5
40 | CCC(c1ccccc1)N1CCc2nn(-c3c(C)cccc3OCC(C)C)c(-c3cc(F)c(NC(N)=O)cc3F)c2C1 (stereo not shown) [Example 1.145] | ≤ 5

Row | Structure (SMILES) | IC50 [nM]
41 | Cc1cccc(C)c1-n1nc2c(c1-c1cc(F)c(NC(N)=O)cc1F)CN(C(C)(C)c1ccccc1)CC2 [Example 1.146] | ≤ 5
42 | CCc1cccc(CC)c1-n1nc2c(c1-c1cc(F)c(NC(N)=O)cc1OC)CN(c1ncc(Cl)cc1Cl)CC2 [Example 1.147] | ≤ 5
43 | CCc1cccc(CC)c1-n1nc2c(c1-c1cc(F)c(NC(N)=O)cc1F)CN(C(C(=O)OC)c1ccccc1)CC2 (stereo not shown) [Example 1.148] | ≤ 5
44 | CCc1cccc(CC)c1-n1nc2c(c1-c1cc(F)c(NC(N)=O)cc1F)CN(C(C)(C)c1ccccc1OC)CC2 [Example 1.149] | ≤ 5
45 | CCc1cccc(CC)c1-n1nc2c(c1-c1cc(F)c(NC(N)=O)cc1F)CN(C(CC)c1ccccc1F)CC2 (stereo not shown) [Example 1.150] | ≤ 5
46 | CCc1cccc(CC)c1-n1nc2c(c1-c1cc(F)c(NC(N)=O)cc1F)CN(Cc1ccccc1)C(C)C2 (stereo not shown) [Example 1.151] | ≤ 5
47 | CCc1cccc(CC)c1-n1nc2c(c1-c1cc(F)c(NC(N)=O)cc1F)CN(C(C)c1ccc(F)cc1)CC2 (stereo not shown) [Example 1.152] | ≤ 5
48 | Cc1cccc(C)c1-n1nc2c(c1-c1cc(F)c(NC(N)=O)cc1F)CN(c1ncc(C(C)C)cn1)CC2 [Example 1.153] | 5 to 50
49 | Cc1cccc(C)c1-n1nc2c(c1-c1cc(F)c(NC(N)=O)cc1F)CN(c1ncc(C(F)(F)F)cn1)CC2 [Example 1.154] | ≤ 5
50 | Cc1cccc(C)c1-n1nc2c(c1-c1cc(F)c(NC(N)=O)cc1F)CN(c1ncc(Cl)cn1)CC2 [Example 1.155] | 5 to 50
51 | CCc1cccc(CC)c1-n1nc2c(c1-c1cc(F)c(NC(N)=O)cc1F)CN(C(C)(C)c1cccc(OC)c1)CC2 [Example 1.156] | ≤ 5
52 | CCc1cccc(CC)c1-n1nc2c(c1-c1cc(F)c(NC(N)=O)cc1F)CN(C(C)(C)c1ccc(OC)cc1)CC2 [Example 1.157] | ≤ 5
53 | Cc1cnc(N2CCc3nn(-c4c(C)cccc4OCC(C)C)c(-c4cc(F)c(NC(N)=O)cc4F)c3C2)nc1 [Example 1.158] | ≤ 5
54 | Cc1cccc(OCC(C)C)c1-n1nc2c(c1-c1cc(F)c(NC(N)=O)cc1F)CN(c1ncc(F)cn1)CC2 [Example 1.159] | ≤ 5
55 | Cc1cccc(OCC(C)C)c1-n1nc2c(c1-c1cc(F)c(NC(N)=O)cc1F)CN(c1ncccn1)CC2 [Example 1.160] | ≤ 5
56 | CCc1cccc(CC)c1-n1nc2c(c1-c1cc(F)c(NC(N)=O)cc1F)CN(C(C)c1ccccc1F)CC2 (stereo not shown) [Example 1.161] | ≤ 5
57 | CCc1cccc(CC)c1-n1nc2c(c1-c1cc(F)c(NC(N)=O)cc1F)CN(C(CC)c1ccccc1)CC2 (stereo not shown) [Example 1.162] | ≤ 5
58 | CCc1cccc(CC)c1-n1nc2c(c1-c1cc(F)c(NC(N)=O)cc1F)CN(C(C)(C)c1cccc(C(F)(F)F)c1)CC2 [Example 1.163] | ≤ 5
